What was measured:
[1] = Cell viability assay (AlamarBlue) in HepAD38 cells; settings: human
[2] = system: HBV; experiment: Determination of HBV DNA from the supernatants of HepAD38 cells (anti-HBV activity); format: cell-based, hepatitis B virus; settings: Hepatitis B virus, 144 h; HBV DNA in HepAD38 supernatant, day 6, qPCR; read-out: Cell Activity (EC50)
Description: Determination of HBV DNA from the Supernatants of HepAD38 Cells
The anti-HBV activity was analysed in the stable transfected cell line HepAD38, which has been described to secrete high levels of HBV virion particles (Ladner et al., 1997). In brief, HepAD38 cells were cultured at 37° C. at 5% CO2 and 95% humidity in 200 μl maintenance medium, which was Dulbecco's modified Eagle's medium/Nutrient Mixture F-12 (Gibco, Karlsruhe), 10% fetal bovine serum (PAN Biotech Aidenbach) supplemented with 50 μg/ml penicillin/streptomycin (Gibco, Karlsruhe), 2 mM L-glutamine (PAN Biotech, Aidenbach), 400 μg/ml G418 (AppliChem, Darmstadt) and 0.3 μg/ml tetracycline. Cells were subcultured once a week in a 1:5 ratio, but were usually not passaged more than ten times. For the assay 60,000 cells were seeded in maintenance medium without any tetracycline into each well of a 96-well plate and treated with serial half-log dilutions of test compound. To minimize edge effects the outer 36 wells of the plate were not used but were filled with assay medium. On each assay plate six wells for the virus control (untreated HepAD38 cells) and six wells for the cell control (HepAD38 cells treated with 0.3 μg/ml tetracycline) were allocated, respectively. In addition, one plate set with reference inhibitors like BAY 41-4109, entecavir, and lamivudine instead of screening compounds were prepared in each experiment. In general, experiments were performed thrice in triplicates. At day 6 HBV DNA from 100 μl filtrated cell culture supernatant (AcroPrep Advance 96 Filter Plate, […] Supor membran, PALL GmbH, Dreieich) was automatically purified on the MagNa Pure LC instrument using the MagNA Pure 96 DNA and Viral NA Small Volume Kit (Roche Diagnostics, Mannheim) according to the instructions of the manufacturer. EC50 values were calculated from relative copy numbers of HBV DNA In brief, 5 μl of the 100 μl eluate containing HBV DNA were subjected to PCR LC480 Probes Master Kit (Roche) together with 1 μM antisense primer […], 0.5 μM sense primer […], 0.3 μM hybprobes […]-FL and LC640-[…]-PH (TIBMoBiol, Berlin) to a final volume of 12.5 μl. The PCR was performed on the Light Cycler 480 real time system (Roche Diagnostics, Mannheim) using the following protocol: Pre-incubation for 1 min at 95° C., amplification: 40 cycles×(10 sec at 95° C., 50 sec at 60° C., 1 sec at 70° C.), cooling for 10 sec at 40° C. Viral load was quantitated against known standards using HBV plasmid DNA of pCH-9/3091 (Nassal et al., 1990, Cell 63: 1357-1363) and the LightCycler 480 SW 1.5 software (Roche Diagnostics, Mannheim) and EC50 values were calculated using non-linear regression with GraphPad Prism 6 (GraphPad Software Inc., La Jolla, USA).

For O=C(c1cc2c(Cl)cc(F)cc2[nH]1)N1CCc2[nH]nc(C(=O)N3CCCC34CC4)c2C1 [Example 215, 2-(3-{4-azaspiro[2.4]heptane-4-carbonyl}-1H,4H,5H,6H,7H-pyrazolo[4,3-c]pyridine-5-carbonyl)-4-chloro-6-fluoro-1H-indole], the CC50 at 6 days [1] was greater than 10 µM and the EC50 [2] was less than 1 µM.
With O=C(c1cc2ccccc2[nH]1)N1CCc2[nH]nc(C(=O)N3CC[C@@H](F)C3)c2C1 [Example 225, 2-{3-[(3R)-3-fluoropyrrolidine-1-carbonyl]-1H,4H,5H,6H,7H-pyrazolo[4,3-c]pyridine-5-carbonyl}-1H-indole] the CC50 at 6 days [1] was greater than 10 µM and the EC50 [2] was less than 1 µM.
O=C(NC1CC1)c1n[nH]c2c1CN(C(=O)c1cc3ccccc3[nH]1)CC2 [Example 220, N-cyclopropyl-5-(1H-indole-2-carbonyl)-1H,4H,5H,6H,7H-pyrazolo[4,3-c]pyridine-3-carboxamide] gave a CC50 at 6 days [1] greater than 10 µM and an EC50 [2] of 1 to 25 µM.
N[C@@H]1CCN(C(=O)c2[nH]nc3c2CN(C(=O)c2cc4ccccc4[nH]2)CC3)C1 [Example 259, (3R)-1-[5-(1H-indole-2-carbonyl)-2H,4H,5H,6H,7H-pyrazolo[4,3-c]pyridine-3-carbonyl]pyrrolidin-3-amine] showed a CC50 at 6 days [1] greater than 10 µM and an EC50 [2] of 1 to 25 µM.
O=C(c1cc2ccccc2[nH]1)N1CCc2[nH]nc(C(=O)N(C3CCOCC3)C3CC3)c2C1 [Example 293, N-cyclopropyl-5-(1H-indole-2-carbonyl)-N-(oxan-4-yl)-1H,4H,5H,6H,7H-pyrazolo[4,3-c]pyridine-3-carboxamide] gave a CC50 at 6 days [1] greater than 10 µM and an EC50 [2] of less than 100 µM.
In the case of O=C(c1cc2ccccc2[nH]1)N1CCc2[nH]nc(C(=O)N3CC(F)(F)C(F)(F)C3)c2C1 [Example 223, 2-[3-(3,3,4,4-tetrafluoropyrrolidine-1-carbonyl)-1H,4H,5H,6H,7H-pyrazolo[4,3-c]pyridine-5-carbonyl]-1H-indole], the CC50 at 6 days [1] is reported as greater than 10 µM and the EC50 [2] is reported as 1 to 25 µM.
O=C(c1cc2ccccc2[nH]1)N1CCc2[nH]nc(C(=O)N3CCC(F)(F)C3)c2C1 [Example 186, 2-[3-(3,3-difluoropyrrolidine-1-carbonyl)-1H,4H,5H,6H,7H-pyrazolo[4,3-c]pyridine-5-carbonyl]-1H-indole] showed a CC50 at 6 days [1] greater than 10 µM and an EC50 [2] of less than 1 µM.
CN(C(=O)c1n[nH]c2c1CN(C(=O)c1cc3ccccc3[nH]1)CC2)[C@@H]1CCCC[C@@H]1O [Example 200, N-[(1R,2S)-2-hydroxycyclohexyl]-5-(1H-indole-2-carbonyl)-N-methyl-1H,4H,5H,6H,7H-pyrazolo[4,3-c]pyridine-3-carboxamide] gave a CC50 at 6 days [1] greater than 10 µM and an EC50 [2] of 1 to 25 µM.
Compound CN(C(=O)c1[nH]nc2c1CN(C(=O)c1cc3ccc(F)cc3[nH]1)CC2)C1CC1 [Example 320, N-cyclopropyl-5-(6-fluoro-1H-indole-2-carbonyl)-N-methyl-2H,4H,5H,6H,7H-pyrazolo[4,3-c]pyridine-3-carboxamide] has a CC50 at 6 days [1] greater than 10 µM and an EC50 [2] of less than 1 µM.
Compound CCc1cccc2[nH]c(C(=O)N3CCc4[nH]nc(C(=O)N5CCC(F)(F)C5)c4C3)cc12 [Example 228, 2-[3-(3,3-difluoropyrrolidine-1-carbonyl)-1H,4H,5H,6H,7H-pyrazolo[4,3-c]pyridine-5-carbonyl]-4-ethyl-1H-indole] has a CC50 at 6 days [1] greater than 10 µM and an EC50 [2] of less than 1 µM.
O=C(c1cc2ccccc2[nH]1)N1CCc2[nH]nc(C(=O)N3CCC4(COC4)C3)c2C1 [Example 183, 2-(3-{2-oxa-6-azaspiro[3.4]octane-6-carbonyl}-1H,4H,5H,6H,7H-pyrazolo[4,3-c]pyridine-5-carbonyl)-1H-indole] gave a CC50 at 6 days [1] greater than 10 µM and an EC50 [2] of 1 to 25 µM.
In the case of O=C(c1cc2cc(F)ccc2[nH]1)N1CCc2n[nH]c(C3CCC3)c2C1 [Example 394, 2-{3-cyclobutyl-2H,4H,5H,6H,7H-pyrazolo[4,3-c]pyridine-5-carbonyl}-5-fluoro-1H-indole], the CC50 at 6 days [1] is reported as greater than 10 µM and the EC50 [2] is reported as less than 1 µM.
CN(CCC(=O)O)C(=O)CCN(C)C(=O)c1[nH]nc2c1CN(C(=O)c1cc3ccccc3[nH]1)CC2 [Example 275, 3-(3-{1-[5-(1H-indole-2-carbonyl)-2H,4H,5H,6H,7H-pyrazolo[4,3-c]pyridin-3-yl]-N-methylformamido}-N-methylpropanamido)propanoic acid] gave a CC50 at 6 days [1] greater than 10 µM and an EC50 [2] of 1 to 25 µM.
Work on CC1c2c(-c3cscn3)n[nH]c2CCN1C(=O)c1cc2c(Cl)cc(F)cc2[nH]1 (stereo not drawn) [Example 35, 4-chloro-6-fluoro-2-[4-methyl-3-(1,3-thiazol-4-yl)-1H,4H,5H,6H,7H-pyrazolo[4,3-c]pyridine-5-carbonyl]-1H-indole] yielded a CC50 at 6 days [1] greater than 32 µM and an EC50 [2] of less than 1 µM.
O=C(c1cc2c(Cl)cccc2[nH]1)N1CCc2[nH]nc(C(=O)N3CCC(F)(F)C3)c2C1 [Example 230, 4-chloro-2-[3-(3,3-difluoropyrrolidine-1-carbonyl)-1H,4H,5H,6H,7H-pyrazolo[4,3-c]pyridine-5-carbonyl]-1H-indole] gave a CC50 at 6 days [1] greater than 10 µM and an EC50 [2] of less than 1 µM.
With CCc1c(F)ccc2[nH]c(C(=O)N3CCc4n[nH]c(-c5cscn5)c4C3)cc12 [Example 25, 4-ethyl-5-fluoro-2-[3-(1,3-thiazol-4-yl)-2H,4H,5H,6H,7H-pyrazolo[4,3-c]pyridine-5-carbonyl]-1H-indole] the CC50 at 6 days [1] was greater than 10 µM and the EC50 [2] was 1 to 25 µM.
CO/N=C(/c1n[nH]c2c1CN(C(=O)c1cc3ccccc3[nH]1)CC2)C1CC1 [Example 288, (E)-{cyclopropyl[5-(1H-indole-2-carbonyl)-1H,4H,5H,6H,7H-pyrazolo[4,3-c]pyridin-3-yl]methylidene}(methoxy)amine] showed a CC50 at 6 days [1] greater than 10 µM and an EC50 [2] of 1 to 25 µM.
For O=C(NC1CCCCC1)c1n[nH]c2c1CN(C(=O)c1cc3ccccc3[nH]1)CC2 [Example 87, N-cyclohexyl-5-(1H-indole-2-carbonyl)-1H,4H,5H,6H,7H-pyrazolo[4,3-c]pyridine-3-carboxamide], the CC50 at 6 days [1] was greater than 100 µM and the EC50 [2] was 1 to 25 µM.
Work on O=C(c1cc2ccccc2[nH]1)N1CCc2[nH]nc(C(=O)N3CCCC34CCC4)c2C1 [Example 151, 2-(3-{5-azaspiro[3.4]octane-5-carbonyl}-1H,4H,5H,6H,7H-pyrazolo[4,3-c]pyridine-5-carbonyl)-1H-indole] yielded a CC50 at 6 days [1] greater than 10 µM and an EC50 [2] of 1 to 25 µM.
With CN(C(=O)c1[nH]nc2c1CN(C(=O)c1cc3ccccc3[nH]1)CC2)C1(C(=O)OC(C)(C)C)CC1 [Example 258, tert-butyl 1-[N-methyl 5-(1H-indole-2-carbonyl)-2H,4H,5H,6H,7H-pyrazolo[4,3-c]pyridine-3-amido]cyclopropane-1-carboxylate] the CC50 at 6 days [1] was greater than 10 µM and the EC50 [2] was 1 to 25 µM.
For COC(=O)CC1(N(C)C(=O)c2n[nH]c3c2CN(C(=O)c2cc4ccccc4[nH]2)CC3)CC1 [Example 226, methyl 2-{1-[N-methyl 5-(1H-indole-2-carbonyl)-1H,4H,5H,6H,7H-pyrazolo[4,3-c]pyridine-3-amido]cyclopropyl}acetate], the CC50 at 6 days [1] was greater than 10 µM and the EC50 [2] was 1 to 25 µM.

Source: patent US11236087B2, “Highly active pyrazolo-piperidine substituted indole-2-carboxamides active against the hepatitis B virus (HBV)” (AiCuris GmbH & Co. KG, priority 2017, dated 2022)
